This note sets out measurements from patent US10111434B2, “Binary fungicidal mixtures” (BAYER CROPSCIENCE AG, priority 2012, dated 2018).

For one assay, the system named is Alternaria solani. As to the kind of experiment: Alternaria test (tomatoes)/preventive. The settings on record: preventive spray, evaluated 3 days after inoculation. In kind it is in vivo. The procedure: Alternaria Test (Tomatoes)/Preventive
(§1) To produce a suitable preparation of active compound, 1 part by weight of active compound is mixed with the stated amounts of solvent and emulsifier, and the concentrate is diluted with water to the desired concentration.
To test for preventive activity, young plants are sprayed with the preparation of active compound at the stated rate of application. After the spray coating has dried on, the plants are inoculated with an aqueous spore suspension of Alternaria solani. The plants are then placed in an incubation cabinet at approximately 20° C. and a relative atmospheric humidity of 100%.
The test is evaluated 3 days after the inoculation. 0% means an efficacy which corresponds to that of the untreated control while an efficacy of 100% means that no disease is observed.

The test system of the next assay is Phakopsora pachyrhizi. As to the kind of experiment: Phakopsora test (soybeans)/preventive. In kind it is in vivo. The settings on record: preventive spray, evaluated 7 days after inoculation. On the procedure:
Phakopsora Test (Soybeans)/Preventive
as §1
To test for preventive activity, young plants are sprayed with the preparation of active compound at the stated rate of application. After the spray coating has dried on, the plants are inoculated with an aqueous spore suspension of the causal agent of soybean rust (Phakopsora pachyrhizi) and stay for 24 h without light in an incubation cabinet at approximately 24° C. and a relative atmospheric humidity of 95%.
The plants remain in the incubation cabinet at approximately 24° C. and a relative atmospheric humidity of approximately 80% and a day/night interval of 12 h.
The test is evaluated 7 days after the inoculation. 0% means an efficacy which corresponds to that of the untreated control, while an efficacy of 100% means that no disease is observed.

For the compound `Cn1c(=O)c2sc3c(=O)n(C)c(=O)c3sc2c1=O` [2.1, 2,6-dimethyl-1H,5H-[1,4]dithiino[2,3-c:5,6-c′]dipyrrole-1,3,5,7(2H,6H)-tetrone], the “Efficacy in % found” value in the assay on Alternaria solani (25 ppm a.i.) is recorded as 39%; with Phakopsora pachyrhizi (25 ppm a.i.) it was 8%.

With `CC1CC(C)(C)c2cccc(NC(=O)c3cn(C)nc3C(F)F)c21` (stereo not drawn) [(I-1), 3-(difluoromethyl)-1-methyl-N-(1,1,3-trimethyl-2,3-dihydro-1H-inden-4-yl)-1H-pyrazole-4-carboxamide], the “Efficacy in % found” value stood at 36% with Alternaria solani (2.5 ppm a.i.) and 68% in the assay with Phakopsora pachyrhizi (2.5 ppm a.i.).

On to propineb [2.2], for which the “Efficacy in % found” value worked out at 33% in the assay on Alternaria solani (25 ppm a.i.) and 0% in the assay on Phakopsora pachyrhizi (25 ppm a.i.).
